Assays:
[1] = tested on: Ehrlich; assay: Ratio of 5-fluorouracil IC50 to compound IC50 for mouse EAC cells; assay type: functional
[2] = tested on: Ehrlich; assay: Ratio of 5-fluorouracil IC25 to compound IC25 for mouse EAC cells; assay type: functional
[3] = Antitumor activity against mouse EAC cells by trypan blue exclusion assay; assay type: functional, cell-based, Ehrlich; settings: for IC25 / IC50: Mus musculus, Ehrlich
[4] = tested on: Ehrlich; assay: Ratio of 5-fluorouracil IC100 to compound IC100 for mouse EAC cells; assay type: functional

Row | SMILES | Ratio IC50 [1] | Ratio [2] | IC100 [3] [µM] | IC25 [3] [nM] | IC50 [3] [nM] | Ratio [4]
1 | Nc1c(C(c2ccc(Cl)cc2)c2c(N)c3ccccc3oc2=O)c(=O)oc2ccccc12 | 3 | 3 | 0.25 | 60 | 120 | 3
2 | O=c1oc2ccccc2c2nc3c(c(-c4ccccc4)c12)CCC/C3=C\c1ccccc1 | 3 | 3 | 0.24 | 60 | 120 | 3
3 | O=C1c2ccccc2-c2nc3c(c(-c4ccccc4)c21)c(=O)oc1ccccc13 | 3 | 3 | 0.27 | 60 | 130 | 3
4 | O=c1oc2ccccc2c2nc(-c3ccccc3)cc(-c3ccc([N+](=O)[O-])cc3)c12 | 3 | 3 | 0.25 | 60 | 120 | 3
5 | O=c1[nH]cc(F)c(=O)[nH]1 [FLUOROURACIL] |  |  | 0.77 | 190 | 380 | 
6 | O=c1oc2ccccc2c2nc(/C=C/c3ccccc3)cc(-c3ccccc3)c12 | 3 | 3 | 0.27 | 60 | 130 | 3

Source: ChEMBL document CHEMBL2424570, “New synthetic approach to coumarino[4,3-b]pyridine systems and potential cytotoxic evaluation” (Med Chem Res, 2013)
